Results from US4175081A, “5-Substituted thiadiazole ureas” (priority 1977, dated 1979).

How the values were obtained:
Turnip (TP) [1] = assay: Post-emergence herbicide test; type: in vivo, Brassica sp.; conditions: Brassica rapa, post-emergence, 336 h, two weeks after treatment
How it was run: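 A greenhouse post-emergence herbicide test on turnip. Seeds were sown on the surface of potting soil in 3' plastic pots, lightly covered with screened soil and watered from below. Planting was timed so seedlings had 1 or 2 true leaves above the cotyledons at spraying, done in a hood with a fixed nozzle. Control or injury was scored by eye after two weeks.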

[2] = test system: Yellow foxtail grass (YF); assay: Pre-emergence herbicide test; type: in vivo, Setaria glauca; conditions: Setaria, 336 h, 2 lb/acre, two weeks after treatment
How it was run: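 Seeds surface-sown in potting soil one day before spraying; compounds applied pre-emergence at 8 or 4 lbs/acre in 38 gallons/acre spray. Pots held in greenhouse with sub-irrigation only. Injury or control rated visually two weeks after treatment.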

Bean (BN) [3] = assay: Post-emergence herbicide test; type: in vivo, Phaseolus vulgaris var. Black Valentine; conditions: Phaseolus vulgaris, post-emergence, 336 h, two weeks after treatment
How it was run: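 Snapbean (Phaseolus vulgaris var. Black Valentine) was tested post-emergence. Four seeds were sown in 3' plastic pots of potting soil at a depth equal to the seed diameter, then sub-irrigated in greenhouse trays. Planting dates were staggered so plants were sprayed once primary leaves had expanded, with the growing point at the primary leaf nodes.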

Barnyard grass (BG) [4] = assay: Post-emergence herbicide test; type: in vivo; conditions: Echinochloa crus-galli, 336 h, 2 lb/acre, two weeks after treatment
How it was run: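 Greenhouse pot-grown barnyard grass seedlings sprayed post-emergence at 8 lbs active compound per acre (some at 4 lbs/acre) in 38 gallons per acre, then sub-irrigated. Injury or control rated visually two weeks after treatment.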

Johnson grass (JG) [5] = assay: Post-emergence herbicide test; type: in vivo, Sorgum helepense; conditions: Sorghum halepense, 336 h, two weeks after treatment
How it was run: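 Greenhouse pot-grown seedlings sprayed post-emergence at 8 lbs compound per acre (some at 4 lbs/acre) in 38 gallons per acre spray volume. Sub-irrigated thereafter. Injury/control rated visually two weeks after treatment.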

Crabgrass (CG) [6] = assay: Post-emergence herbicide test; type: in vivo, Digitaria sanquinalis; conditions: Digitaria sanguinalis, post-emergence, 336 h, two weeks after treatment
How it was run: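 Crabgrass (Digitaria sanquinalis) was surface seeded individually in 3' plastic pots of potting soil, covered with screened soil, and watered by sub-irrigation in greenhouse trays. Planting was staggered so seedlings reached the target stage together. Post-emergence sprays were applied in a hood with a removable belt and fixed nozzle, and control was visually rated two weeks after treatment.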

[7] = Acute oral toxicity in rats; conditions: rat, in vivo
Turnip (TP) [8] = assay: Pre-emergence herbicide test; type: in vivo, Brassica sp.; conditions: Brassica rapa, pre-emergence, 336 h, two weeks after treatment
How it was run: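 Turnip (Brassica sp.) seeds were surface sown in 3' plastic pots of potting soil, covered with a thin layer of screened soil, and sub-irrigated in greenhouse trays. Pots were seeded one day ahead of treatment, sprayed pre-emergence under a hood with a fixed nozzle and moving belt, then kept in the greenhouse.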

Amaranth pigweed (PW) [9] = assay: Post-emergence herbicide test; type: in vivo, Amaranthus retroflexus; conditions: 336 h, 2 lb/acre, two weeks after treatment
How it was run: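 Pot-grown pigweed was sprayed post-emergence at the 1–2 true-leaf stage with compound at rates equivalent to 8 lbs per acre (formulations also prepared for 4 lbs/acre) in 38 gallons per acre, using a hood with fixed nozzle. Plants were sub-irrigated in the greenhouse, and injury or control was rated visually two weeks after treatment.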

Bean (BN) [10] = assay: Pre-emergence herbicide test; type: in vivo, Phaseolus vulgaris var. Black Valentine; conditions: Phaseolus vulgaris, 336 h, two weeks after treatment
How it was run: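 Black Valentine bean was seeded in potting soil one day before spraying. Compound was applied pre-emergence at 8 lbs/acre (also 4 lbs/acre) in 38 gallons per acre. Plants were sub-irrigated and injury or control was rated visually after two weeks.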

Barnyard grass (BG) [11] = assay: Pre-emergence herbicide test; type: in vivo; conditions: Echinochloa crus-galli, 336 h, two weeks after treatment
How it was run: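 Barnyard grass surface-seeded in potting soil and sprayed pre-emergence one day after seeding, at 8 or 4 lb compound/acre in 38 gal/acre spray volume. Pots kept in greenhouse with sub-irrigation only; injury or control rated visually two weeks after treatment.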

Corn (CN) [12] = assay: Pre-emergence herbicide test; type: in vivo; conditions: Zea mays, 336 h, two weeks after treatment
How it was run: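 Four corn seeds per pot, sown at seed-diameter depth one day before spraying, got soil surface treatment at 8 lbs/acre (4 lbs/acre formulations also prepared) in 38 gallons/acre. Pots were greenhouse-held with sub-irrigation only. Injury or control was scored visually two weeks after treatment.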

Amaranth pigweed (PW) [13] = assay: Pre-emergence herbicide test; type: in vivo, Amaranthus retroflexus; conditions: 336 h, 2 lb/acre, two weeks after treatment
How it was run: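 Pigweed was surface-seeded in potted soil one day before spraying at 8 lbs compound per acre, or 4 lbs/acre, in 38 gallons per acre. Pots were kept in the greenhouse with sub-irrigation only; injury or control was rated visually two weeks after treatment.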

[14] = test system: Yellow foxtail grass (YF); assay: Post-emergence herbicide test; type: in vivo, Setaria glauca; conditions: Setaria, 336 h, 2 lb/acre, two weeks after treatment
How it was run: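 Potted seedlings grown in greenhouse, planting staggered to reach the target stage together, then sprayed post-emergence at 8 lbs actual compound/acre in 38 gallons/acre (4 lbs/acre formulations also prepared). Sub-irrigated afterwards. Injury or control rated visually two weeks after treatment.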

Corn (CN) [15] = assay: Post-emergence herbicide test; type: in vivo; conditions: Zea mays, 336 h, two weeks after treatment
How it was run: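 Greenhouse seedlings grown in potting soil and sprayed post-emergence at 8 lbs compound/acre (formulations also made for 4 lbs/acre) in 38 gallons/acre spray volume. Watering by sub-irrigation only. Injury or control rated visually two weeks after treatment.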

Johnson grass (JG) [16] = assay: Pre-emergence herbicide test; type: in vivo, Sorgum helepense; conditions: Sorghum halepense, 336 h, two weeks after treatment
How it was run: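 Pots seeded one day before spraying; compound applied pre-emergence at 8 lbs/acre (or 4 lbs/acre) in 38 gallons/acre spray volume. Sub-irrigated in greenhouse; injury/control rated visually two weeks after treatment.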

Cotton (CT) [17] = assay: Pre-emergence herbicide test; type: in vivo, Gossypium hirsutum var. DPL smooth leaf; conditions: Gossypium hirsutum, 336 h, two weeks after treatment
How it was run: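 Crop and weed species seeded one day before treatment, then sprayed pre-emergence at 8 lbs actual compound per acre (also 4 lbs/acre formulations) in 38 gallons per acre. Pots kept in greenhouse with sub-irrigation only; injury or control visually rated two weeks after treatment.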

Crabgrass (CG) [18] = assay: Pre-emergence herbicide test; type: in vivo, Digitaria sanquinalis; conditions: Digitaria sanguinalis, pre-emergence, 336 h, two weeks after treatment
How it was run: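 Crabgrass (Digitaria sanquinalis) was surface seeded in 3' plastic pots of potting soil, covered with screened soil, and watered by sub-irrigation in greenhouse trays. Pots were seeded one day before spraying in a hood with a moving belt and fixed nozzle. Plants stayed in the greenhouse on sub-irrigation, and pre-emergence control was rated visually two weeks after treatment.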

Cotton (CT) [19] = assay: Post-emergence herbicide test; type: in vivo, Gossypium hirsutum var. DPL smooth leaf; conditions: Gossypium hirsutum, post-emergence, 336 h, two weeks after treatment
How it was run: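 Cotton (Gossypium hirsutum var. DPL smooth leaf) was grown in 3' plastic pots of potting soil, four seeds per pot, planted at a depth equal to the seed diameter and watered by sub-irrigation. At the stage of expanded cotyledons with the first true leaf 1' long, plants were sprayed post-emergence in a hood with a fixed nozzle over a moving belt. Percent control was rated visually two weeks later.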

CNC(=O)Nc1nnc(C(C)(C)C)s1 [Example 86]
pest or weed control at 2241.7 g/ha (Turnip (TP) [1]; 2 lb/acre): 100%
pest or weed control at 8966.8 g/ha (Turnip (TP) [1]; 8 lb/acre): 100%
pest or weed control at 2241.7 g/ha [2]: 90%
pest or weed control at 2241.7 g/ha (Bean (BN) [3]; 2 lb/acre): 100%
pest or weed control at 8966.8 g/ha (Bean (BN) [3]; 8 lb/acre): 100%
pest or weed control at 2241.7 g/ha (Barnyard grass (BG) [4]): 50%
pest or weed control (Johnson grass (JG) [5]; 2 lb/acre): 80%
pest or weed control at 8966.8 g/ha (Johnson grass (JG) [5]; 8 lb/acre): 100%
pest or weed control (Crabgrass (CG) [6]; 2 lb/acre): 50%
pest or weed control at 8966.8 g/ha (Crabgrass (CG) [6]; 8 lb/acre): 80%
LD50 [7]: 2700 mg/kg
pest or weed control at 2241.7 g/ha (Turnip (TP) [8]; 2 lb/acre): 100%
pest or weed control at 8966.8 g/ha (Turnip (TP) [8]; 8 lb/acre): 100%
pest or weed control at 2241.7 g/ha (Amaranth pigweed (PW) [9]): 100%
pest or weed control at 2241.7 g/ha (Bean (BN) [10]; 2 lb/acre): 30%
pest or weed control at 8966.8 g/ha (Bean (BN) [10]; 8 lb/acre): 100%
pest or weed control at 2241.7 g/ha (Barnyard grass (BG) [11]; 2 lb/acre): 60%
pest or weed control at 8966.8 g/ha (Barnyard grass (BG) [11]; 8 lb/acre): 80%
pest or weed control at 2241.7 g/ha (Corn (CN) [12]; 2 lb/acre): 10%
pest or weed control at 8966.8 g/ha (Corn (CN) [12]; 8 lb/acre): 60%
pest or weed control at 2241.7 g/ha (Amaranth pigweed (PW) [13]): 100%
pest or weed control [14]: 70%
pest or weed control (Corn (CN) [15]; 2 lb/acre): 40%
pest or weed control at 8966.8 g/ha (Corn (CN) [15]; 8 lb/acre): 100%
pest or weed control at 2241.7 g/ha (Johnson grass (JG) [16]; 2 lb/acre): 60%
pest or weed control at 8966.8 g/ha (Johnson grass (JG) [16]; 8 lb/acre): 50%
pest or weed control at 2241.7 g/ha (Cotton (CT) [17]; 2 lb/acre): 10%
pest or weed control at 8966.8 g/ha (Cotton (CT) [17]; 8 lb/acre): 50%
pest or weed control (Crabgrass (CG) [18]; 2 lb/acre): 90%
pest or weed control at 8966.8 g/ha (Crabgrass (CG) [18]; 8 lb/acre): 100%
pest or weed control at 2241.7 g/ha (Cotton (CT) [19]; 2 lb/acre): 100%
pest or weed control at 8966.8 g/ha (Cotton (CT) [19]; 8 lb/acre): 100%
